Results from the supplement of paper PMC5908809.

Key:
[1] = tested on: normal NK cells expanded with K562-aAPC; test: percent inhibition of viability; higher = more inhibition; conditions: 72 h, IL-2 2.5 ng/mL
Protocol: (§1)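 Drug sensitivity and resistance testing on K562-aAPC-expanded normal NK cells: 5 concentrations (10-fold steps over a 10,000-fold range), 72 h at 37 °C, viability by CellTiter-Glo normalised to DMSO and benzethonium chloride controls; DSS from the fitted curve.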

[2] = tested on: YT (IL-2 2.5 ng/mL); test: drug sensitivity score (DSS) (DSS units); higher = more sensitive; extreme values may be limits of the assay; conditions: 72 h
[3] = tested on: IMC-1 (IL-2 20 ng/mL); test: as above; conditions: 72 h
[4] = tested on: normal primary NK cells, pool 2 (3 donors) (IL-2 2.5 ng/mL); test: as above; conditions: 72 h
[5] = tested on: NK-92 (IL-2 2.5 ng/mL); test: as above; conditions: 72 h
[6] = tested on: SNK-6 (IL-2 2.5 ng/mL); test: as above; conditions: 72 h
[7] = tested on: normal primary NK cells, pool 3 (3 donors) (IL-2 2.5 ng/mL); test: as above; conditions: 72 h
[8] = tested on: DERL-7 (IL-2 2.5 ng/mL); test: as above; conditions: 72 h
[9] = tested on: NKL (IL-2 2.5 ng/mL); test: as above; conditions: 72 h
[10] = tested on: NK-YS (IL-2 2.5 ng/mL); test: as above; conditions: 72 h
[11] = tested on: KAI3 (IL-2 2.5 ng/mL); test: as above; conditions: 72 h
[12] = tested on: normal primary NK cells, pool 1 (3 donors) (IL-2 2.5 ng/mL); test: as above; conditions: 72 h
[13] = tested on: normal primary NK cells, pool 1 (3 donors), resting (IL-2 0 ng/mL); test: as above; conditions: 72 h
[14] = tested on: KHYG-1 (IL-2 2.5 ng/mL); test: as above; conditions: 72 h
[15] = tested on: YT (IL-2 2.5 ng/mL); test: percent inhibition of viability; higher = more inhibition; conditions: 72 h
[16] = tested on: IMC-1 (IL-2 20 ng/mL); test: as above; conditions: 72 h
[17] = tested on: normal primary NK cells, pool 2 (3 donors) (IL-2 2.5 ng/mL); test: as above; conditions: 72 h
[18] = tested on: NK-92 (IL-2 2.5 ng/mL); test: as above; conditions: 72 h
[19] = tested on: SNK-6 (IL-2 2.5 ng/mL); test: as above; conditions: 72 h
[20] = tested on: normal primary NK cells, pool 3 (3 donors) (IL-2 2.5 ng/mL); test: as above; conditions: 72 h
[21] = tested on: DERL-7 (IL-2 2.5 ng/mL); test: as above; conditions: 72 h
[22] = tested on: NKL (IL-2 2.5 ng/mL); test: as above; conditions: 72 h
[23] = tested on: NK-YS (IL-2 2.5 ng/mL); test: as above; conditions: 72 h
[24] = tested on: KAI3 (IL-2 2.5 ng/mL); test: as above; conditions: 72 h
[25] = tested on: normal primary NK cells, pool 1 (3 donors) (IL-2 2.5 ng/mL); test: as above; conditions: 72 h
[26] = tested on: normal primary NK cells, pool 1 (3 donors), resting (IL-2 0 ng/mL); test: as above; conditions: 72 h
[27] = tested on: KHYG-1 (IL-2 2.5 ng/mL); test: as above; conditions: 72 h
[28] = tested on: normal NK cells expanded with K562-aAPC; test: drug sensitivity score (DSS) (DSS units); higher = more sensitive; extreme values may be limits of the assay; conditions: 72 h; IL-2 2.5 ng/mL
Protocol: as §1

CNC(=O)c1cc(Oc2ccc(NC(=O)Nc3cc(C(C)(C)C)nn3-c3ccc4ncccc4c3)c(F)c2)ccn1 [Rebastinib] (max concentration tested 1000 nM)
percent inhibition of viability [%]
Conditions	0.1 nM	1 nM	10 nM	100 nM	1000 nM
[1]	-1.77	-3.86	-0.78	-3.03	-4.18
[15]	-4.61	-3.15	-0.26	1.61	-0.37
[16]	0.93	7.15	-1.23	1.86	-6.19
[17]	-4.03	-4.97	-4.4	-1.73	-9.3
[18]	-1.88	1.51	-1.48	0.06	-12.8
[19]	7.77	13.4	-14.2	1.04	-59.9
[20]	-9.69	-6.19	-1.5	-11	-8.81
[21]	-4.96	1.69	-0.5	-4.52	-8.09
[22]	-2.2	-3.91	-1.3	8.69	5.2
[23]	-1.58	-3.98	-0.95	1.01	2.92
[24]	7.99	9.63	10.5	5.1	-6.78
[25]	-3.76	-8.51	-9.53	-4.2	-12.7
[26]	-11.2	-7.34	-6.2	-15.4	1.95
[27]	-2.88	-0.08	0.01	-1.2	-8.03

Conditions	drug sensitivity score
[2]	0
[3]	0
[4]	0
[5]	0
[6]	0
[7]	0
[8]	0
[9]	0
[10]	0
[11]	0
[12]	0
[13]	0
[14]	0
[28]	0

CN(C)C(=O)c1cc2cnc(Nc3ccc(N4CCNCC4)cn3)nc2n1C1CCCC1 [Ribociclib] (max concentration tested 10000 nM)
percent inhibition of viability [%]
Conditions	1 nM	10 nM	100 nM	1000 nM	10000 nM
[1]	-3.33	-2.59	0.08	20.6	22.7
[16]	-7.57	-0.52	-5.29	0.27	7.32
[17]	-4.92	-2.8	8.5	5.64	48.2
[20]	-3.67	-4.43	6	1.54	30.9

Conditions	drug sensitivity score
[3]	0
[4]	3.47
[7]	1.58
[28]	3.05

CC(=O)N(O)CCCCCNC(=O)CCC(=O)N(O)CCCCCNC(=O)CCC(=O)N(O)CCCCCN [Deferoxamine] (max concentration tested 10000 nM)
percent inhibition of viability [%]
Conditions	1 nM	10 nM	100 nM	1000 nM	10000 nM
[1]	-3.82	-8.67	-5.64	22.8	86.1
[16]	-6.25	-3.2	-4.14	-0.7	97.2
[17]	-2.8	5.46	3.49	11.1	42.7
[20]	-1.79	6.03	10.4	16.1	53.2

Conditions	drug sensitivity score
[3]	5.37
[4]	3.84
[7]	4.59
[28]	8.23

CN(C)C(=O)c1cc2cnc(Nc3ccc(N4CCNCC4)cn3)nc2n1C1CCCC1 [NVP-LEE011] (max concentration tested 10000 nM)
Conditions	drug sensitivity score
[2]	3.67
[5]	2.18
[6]	1.78
[8]	3.81
[9]	2.07
[10]	4.9
[11]	2
[12]	3.77
[13]	6.2
[14]	9.33

percent inhibition of viability [%]
Conditions	[15]	[18]	[19]	[21]	[22]	[23]	[24]	[25]	[26]	[27]
1 nM	-3.41	-9.54	-8.9	-3.18	-12.3	-2.35	-3.87	4.32	7.64	-4.23
10 nM	-2.71	-16.1	3.64	4.13	-11.2	-0.02	1.07	8.46	12.1	0.91
100 nM	-0.92	-4.22	-2.64	1.76	-15	5.18	-4.85	8.7	17.7	-1.06
1000 nM	9.6	15.8	12.5	11.2	-6.48	22.1	4.66	6.05	14.8	37.5
10000 nM	42.3	20.8	19.8	41.6	47.9	48	29.2	51.8	51.6	81.3
